“And” between values parts separate entries of the source, which are not always exact repeats. Equal values may be shown once.
Test system: adult patients (aged 18-64 years) with TRD
Assay: Maximum time to onset of clinician-reported adverse events by AE week 1/week 4 occurrence (Tables 5-16; modal dose 56, modal dose 84, Total)
Format: in vivo, human
Conditions: for Blood Pressure (clinician): n >60 m / Blood Pressure (clinician): 31-60 m / Blood Pressure (clinician): 61-90 m / Blood Pressure (clinician): % >60 m / Blood Pressure (clinician): TOTAL / Dissociation (clinician), % >60 m / Dizziness, % >60 m / Sedation, % >60 m / Vertigo, % >60 m: Based on Week 4; for Sedation(clinician-reported), n (%) / Vertigo(clinician-reported), n (%) / Dissociation(clinician-reported), n (%) / Blood pressure increased (clinician-reported), n (%) / Dizziness(clinician-reported), n (%): listed as ESK
Protocol: Patients were monitored for >90 minutes after ESK administration at each treatment session, after which time they could leave the clinical site at the clinician's discretion. AEs were monitored and reported, and safety assessments, including clinical laboratory tests and physical examinations, were conducted throughout the study. Clinician-reported AEs were categorized as mild, moderate, or severe based on clinical judgement (Table 1).
Since flexible dosing (ESK 56 or 84 mg) was permitted in the studies and an individual patient's doses could change within dosing timeframes, patients were stratified by modal dose during the respective periods.
The time to onset of the adverse events experienced by patients in Example 2 was analyzed. Tables 5-11 include the summary of specific adverse events by their respective categorized maximum time to Onset (i) across sessions 3-8 during Induction Phase by AE week 1 occurrence (Table 5), (ii) during Optimization Phase by AE week 1 occurrence (Table 6), (iii) during Optimization Phase by AE week 4 occurrence (Table 7), (iv) during Month 3-6 of Maintenance Phase by AE week 1 occurrence (Table 8), (v) Month 3-6 of Maintenance Phase by AE week 4 occurrence (Table 9), (vi) Month 6-12 of Maintenance Phase by AE week 1 occurrence (Table 10), and (vii) during Month 6-12 of Maintenance Phase by AE week 4 (Table 11).
Tables 12-16 include the incidences of clinician-reported blood pressure (Table 12), clinician-reported dissociation (Table 13), dizziness (Table 14), sedation (Table 15), and vertigo (Table 16) spanning week 1 to month 12 using the data of Example 2.

[1] = Induction Phase sessions 3-8, AE week 1 None
[2] = Induction Phase sessions 3-8, AE week 1 Once
[3] = Induction Phase sessions 3-8, AE week 1 Twice
[4] = Month 3-6 Maintenance, AE week 1 None, onset missing
[5] = Month 3-6 Maintenance, AE week 4 None, onset 31-60 minutes
[6] = Month 3-6 Maintenance, AE week 4 None, onset missing
[7] = Month 6-12 Maintenance, AE week 4 Once
[8] = Month 6-12 Maintenance, AE week 4 Twice, onset 31-60 minutes
[9] = Optimization Phase, AE week 1 Once
[10] = Optimization Phase, AE week 4 None

CN[C@]1(c2ccccc2Cl)CCCCC1=O [esketamine, (S)-2-(2-chlorophenyl)-2-(methylamino)cyclohexanone]
Blood Pressure (clinician): n >60 m (None, Month 3-6): 1 | Blood Pressure (clinician): 31-60 m (None, Month 6-12): 6 | Blood Pressure (clinician): 61-90 m (None, Month 6-12): 1 | Blood Pressure (clinician): % >60 m (None, Month 6-12): 12.5% | Blood Pressure (clinician): TOTAL (None, Month 6-12): 8 | Blood Pressure (clinician): n >60 m (None, Month 6-12): 1 | Blood Pressure (clinician): 31-60 m (Once, Month 2): 9 | Blood Pressure (clinician): % >60 m (Once, Month 2): 0% | Blood Pressure (clinician): TOTAL (Once, Month 2): 9 | Blood Pressure (clinician): n >60 m (Once, Month 2): 0 | Blood Pressure (clinician): 31-60 m (Once, Month 3-6): 5 | Blood Pressure (clinician): % >60 m (Once, Month 3-6): 0% | Blood Pressure (clinician): TOTAL (Once, Month 3-6): 5 | Blood Pressure (clinician): n >60 m (Once, Month 3-6): 0 | Blood Pressure (clinician): 31-60 m (Once, Month 6-12): 3 | Blood Pressure (clinician): % >60 m (Once, Month 6-12): 0% | Blood Pressure (clinician): TOTAL (Once, Month 6-12): 3 | Blood Pressure (clinician): n >60 m (Once, Month 6-12): 0 | Blood Pressure (clinician): 31-60 m (Twice, Month 2): 9 | Blood Pressure (clinician): % >60 m (Twice, Month 2): 0% | Blood Pressure (clinician): TOTAL (Twice, Month 2): 9 | Blood Pressure (clinician): n >60 m (Twice, Month 2): 0 | Blood Pressure (clinician): 31-60 m (Twice, Month 3-6): 2 | Blood Pressure (clinician): 61-90 m (Twice, Month 3-6): 1 | Blood Pressure (clinician): % >60 m (Twice, Month 3-6): 33.3% | Blood Pressure (clinician): TOTAL (Twice, Month 3-6): 3 | Blood Pressure (clinician): n >60 m (Twice, Month 3-6): 1 | Blood Pressure (clinician): 31-60 m (Twice, Month 6-12): 2 | Blood Pressure (clinician): % >60 m (Twice, Month 6-12): 0% | Blood Pressure (clinician): TOTAL (Twice, Month 6-12): 2 | Blood Pressure (clinician): n >60 m (Twice, Month 6-12): 0 | Dissociation (clinician), % >60 m (incidence None, Month 2): 0% | Dizziness, % >60 m (incidence None, Month 2): 8.6% | Sedation, % >60 m (incidence None, Month 2): 0% | Vertigo, % >60 m (incidence None, Month 2): 12% | Dissociation (clinician), % >60 m (incidence None, Month 3-6): 2.6% | Dizziness, % >60 m (incidence None, Month 3-6): 2.1% | Sedation, % >60 m (incidence None, Month 3-6): 14.3% | Vertigo, % >60 m (incidence None, Month 3-6): 13.6% | Dissociation (clinician), % >60 m (incidence None, Month 6-12): 4.2% | Dizziness, % >60 m (incidence None, Month 6-12): 0% | Sedation, % >60 m (incidence None, Month 6-12): 0% | Vertigo, % >60 m (incidence None, Month 6-12): 0% | Dissociation (clinician), % >60 m (incidence Once, Month 2): 4.8% | Dizziness, % >60 m (incidence Once, Month 2): 3.7% | Sedation, % >60 m (incidence Once, Month 2): 0% | Vertigo, % >60 m (incidence Once, Month 2): 4.3% | Dissociation (clinician), % >60 m (incidence Once, Month 3-6): 6.7% | Dizziness, % >60 m (incidence Once, Month 3-6): 0% | Sedation, % >60 m (incidence Once, Month 3-6): 0% | Vertigo, % >60 m (incidence Once, Month 3-6): 0% | Dissociation (clinician), % >60 m (incidence Once, Month 6-12): 0% | Dizziness, % >60 m (incidence Once, Month 6-12): 0% | Sedation, % >60 m (incidence Once, Month 6-12): 0% | Vertigo, % >60 m (incidence Once, Month 6-12): 25% | Dissociation (clinician), % >60 m (incidence Twice, Month 2): 0% | Dizziness, % >60 m (incidence Twice, Month 2): 3.8% | Sedation, % >60 m (incidence Twice, Month 2): 0% | Vertigo, % >60 m (incidence Twice, Month 2): 0% | Dissociation (clinician), % >60 m (incidence Twice, Month 3-6): 3% | Dizziness, % >60 m (incidence Twice, Month 3-6): 3% | Sedation, % >60 m (incidence Twice, Month 3-6): 0% | Vertigo, % >60 m (incidence Twice, Month 3-6): 9.5% | Dissociation (clinician), % >60 m (incidence Twice, Month 6-12): 0% | Dizziness, % >60 m (incidence Twice, Month 6-12): 5.9% | Sedation, % >60 m (incidence Twice, Month 6-12): 0% | Vertigo, % >60 m (incidence Twice, Month 6-12): 0% | Blood pressure increased: time to onset 31-60 minutes [1]: 10 (90.9%) and 10 (100%) and 20 (95.2%) | Sedation: time to onset 31-60 minutes [1]: 2 (22.2%) and 2 (20.0%) and 4 (21.1%) | Sedation: time to onset >90 minutes [1]: 1 (11.1%) and 1 (10.0%) and 2 (10.5%) | Vertigo: time to onset 61-90 minutes [1]: 1 (3.3%) and 1 (6.7%) and 2 (4.4%) | Dizziness: time to onset 31-60 minutes [2]: 4 (12.1%) and 4 (17.4%) and 8 (14.3%) | Dizziness: time to onset 61-90 minutes [2]: 1 (3.0%) and 1 (4.3%) and 2 (3.6%) | Vertigo: time to onset >90 minutes [2]: 1 (9.1%) and 1 (5.6%) and 2 (6.9%) | Dissociation: time to onset 61-90 minutes [3]: 2 (5.6%) and 2 (7.1%) and 4 (6.3%) | Dizziness: time to onset >90 minutes [3]: 1 (2.8%) and 1 (2.5%) and 2 (2.6%) | Sedation(clinician-reported), n (%) (Month 3-6 Maintenance, AE week 1 None, onset 31-60 minutes): 1 (20.0%) and 1 (8.3%) and 2 (11.8%) | Vertigo(clinician-reported), n (%) (Month 3-6 Maintenance, AE week 1 None, onset 61-90 minutes): 1 (10.0%) and 1 (12.5%) and 2 (11.1%) | Dissociation(clinician-reported), n (%) [4]: 1 (5.9%) and 1 (5.3%) and 2 (5.6%) | Sedation(clinician-reported), n (%) [4]: 1 (20.0%) and 1 (8.3%) and 2 (11.8%) | Blood pressure increased (clinician-reported), n (%) (Month 3-6 Maintenance, AE week 1 Once): 2 (2.0%) and 2 (1.9%) and 4 (2.0%) | Blood pressure increased (clinician-reported), n (%) (Month 3-6 Maintenance, AE week 1 Once, onset 31-60 minutes): 2 (100%) and 4 (100%) | Blood pressure increased (clinician-reported), n (%) (Month 3-6 Maintenance, AE week 1 Twice): 2 (2.0%) and 2 (1.9%) and 4 (2.0%) | Vertigo(clinician-reported), n (%) (Month 3-6 Maintenance, AE week 1 Twice, onset 0-30 minutes): 11 (91.7%) and 11 (84.6%) and 22 (88.0%) | Dissociation(clinician-reported), n (%) [5]: 5 (27.8%) and 5 (25.0%) and 10 (26.3%) | Sedation(clinician-reported), n (%) [5]: 1 (20.0%) and 1 (11.1%) and 2 (14.3%) | Vertigo(clinician-reported), n (%) (Month 3-6 Maintenance, AE week 4 None, onset 61-90 minutes): 1 (8.3%) and 1 (10.0%) and 2 (9.1%) | Dissociation(clinician-reported), n (%) [6]: 1 (5.6%) and 1 (5.0%) and 2 (5.3%) | Dizziness(clinician-reported), n (%) [6]: 2 (6.9%) and 2 (11.1%) and 4 (8.5%) | Vertigo(clinician-reported), n (%) (Month 3-6 Maintenance, AE week 4 Once): 3 (3.0%) and 3 (2.9%) and 6 (3.0%) | Vertigo(clinician-reported), n (%) (Month 3-6 Maintenance, AE week 4 Once, onset 0-30 minutes): 3 (100%) and 6 (100%) | Dizziness(clinician-reported), n (%) (Month 3-6 Maintenance, AE week 4 Once, onset 31-60 minutes): 1 (14.3%) and 1 (16.7%) and 2 (15.4%) | Vertigo(clinician-reported), n (%) (Month 3-6 Maintenance, AE week 4 Twice, onset 61-90 minutes): 1 (12.5%) and 1 (7.7%) and 2 (9.5%) | Sedation(clinician-reported), n (%) (Month 6-12 Maintenance, AE week 1 None): 5 (7.5%) and 5 (8.3%) and 10 (7.9%) | Sedation(clinician-reported), n (%) (Month 6-12 Maintenance, AE week 1 None, onset missing): 1 (20.0%) and 2 (20.0%) | Dizziness(clinician-reported), n (%) (Month 6-12 Maintenance, AE week 1 Twice): 7 (10.4%) and 7 (11.7%) and 14 (11.0%) | Vertigo(clinician-reported), n (%) (Month 6-12 Maintenance, AE week 1 Twice, onset 31-60 minutes): 1 (10.0%) and 1 (16.7%) and 2 (12.5%) | Sedation(clinician-reported), n (%) (Month 6-12 Maintenance, AE week 4 None): 4 (6.0%) and 4 (6.7%) and 8 (6.3%) | Vertigo(clinician-reported), n (%) (Month 6-12 Maintenance, AE week 4 None, onset 31-60 minutes): 1 (14.3%) and 1 (25.0%) and 2 (18.2%) | Sedation(clinician-reported), n (%) (Month 6-12 Maintenance, AE week 4 None, onset missing): 1 (25.0%) and 2 (25.0%) | Sedation(clinician-reported), n (%) [7]: 2 (3.0%) and 2 (3.3%) and 4 (3.1%) | Vertigo(clinician-reported), n (%) [7]: 2 (3.0%) and 2 (3.3%) and 4 (3.1%) | Vertigo(clinician-reported), n (%) (Month 6-12 Maintenance, AE week 4 Once, onset 0-30 minutes): 1 (50.0%) and 2 (50.0%) | Dissociation(clinician-reported), n (%) (Month 6-12 Maintenance, AE week 4 Once, onset 31-60 minutes): 1 (100%) and 1 (12.5%) and 2 (22.2%) | Blood pressure increased (clinician-reported), n (%) (Month 6-12 Maintenance, AE week 4 Twice): 1 (1.5%) and 1 (1.7%) and 2 (1.6%) | Blood pressure increased (clinician-reported), n (%) [8]: 1 (100%) and 2 (100%) | Vertigo(clinician-reported), n (%) [8]: 1 (11.1%) and 1 (16.7%) and 2 (13.3%) | Dizziness: time to onset >90 minutes [9]: 1 (5.6%) and 1 (6.7%) and 2 (6.1%) | Sedation: patients with AE [9]: 2 (1.5%) and 2 (1.2%) and 4 (1.3%) | Vertigo: time to onset 31-60 minutes [9]: 1 (12.5%) and 1 (9.1%) and 2 (10.5%) | Vertigo: time to onset >90 minutes [9]: 1 (12.5%) and 1 (9.1%) and 2 (10.5%) | Blood pressure increased: patients with AE [10]: 9 (6.8%) and 9 (5.4%) and 18 (6.0%) | Dissociation: patients with AE [10]: 23 (17.4%) and 23 (13.8%) and 46 (15.4%) | Sedation: patients with AE [10]: 5 (3.8%) and 5 (3.0%) and 10 (3.3%) | Vertigo: time to onset 61-90 minutes [10]: 1 (10.0%) and 1 (6.7%) and 2 (8.0%) | Dizziness: time to onset 31-60 minutes (Optimization Phase, AE week 4 Once): 1 (9.1%) and 1 (6.3%) and 2 (7.4%) | Dizziness: time to onset 31-60 minutes (Optimization Phase, AE week 4 Twice): 1 (3.7%) and 1 (3.8%) and 2 (3.8%) | time at which adverse events (particularly dissociation, increase in blood pressure) generally peak (human, in vivo, other: intranasal): ~40 min
